As usually defined, the LD50 is the dose expected to kill half of the subjects tested. Read a high LD50 as a less toxic substance.

Data on two molecules can be found in patent US20030175365A1, “Natural drug induced differentiation cancer cells to resemble normal cells” (priority 2002, published 2003).

The subject of one data set is HL-60 cells. In words: Induction of differentiation of human leukemic cells (NBT reduction, NSE staining). Type of data set: cell-based. The note with it: Leukemic cells + HHT; P < 0.001 vs leukemic cells. Here is the method:
Cell Lines. HL-60 cells were established from a patient with acute myeloid leukemia. The cells were cultured in culture flasks with RPMI plus 10% FCS.
Studies of Induction of Differentiation. Differentiation of HL-60 cells was assessed by their abilities to produced superoxide as measured by reduction of NBT, by NSE staining and by morphology as detected on cytospin preparations stained with Diff-Quick stain Set, and by analysis of membrane-bound differentiation markers with two-color immunofluorescence. Briefly, cells were preincubated at 4° C. for 60 min in 10% human AB serum and then with FITC-conjugated mouse IgGI isotype control. Analysis of fluorescence was performed on a flow cytometer.

The test system of a further data set is gastric cancer cells. Kind of data set: Differentiation of gastric cancer cells (NBT, NSE). To be noted: Gastric cancer cells + HHT; P < 0.001. Type of data set: cell-based. Here is the method:
The gastric cancer cells and normal cells were cultured in PRMI 1640 medium supplement with 10% FCS serum. Other method is similar to example 1.

The test system of another data set is Epidermis cancer cells. In words: Differentiation of epidermis cancer cells (NBT, NSE). To be noted: Epidermis cancer cells + HHT; P < 0.001. The class given is cell-based, mouse.
Data set [1] relates to TPA-stimulated mouse epidermis. In words: [3H] thymidine incorporation (DNA synthesis) in TPA-stimulated mouse epidermis. The class given is in vivo. To be noted: TPA-treated mice. Here is the method: It is known that tetradecanoyphorbol-13-acetate (TPA) is strong tumor promoter and TPA can remarkable increase [^3H] thymidine incorporation in mouse epidermis and then to induce Epidermis cancer.
ice were treated with TPA and the rate of [^3H] thymidine incorporation was determined 20 hours later. Male mice (7-9 weeks old) used for experiments. Only mice showing no hair regrowth following shaving were used. Animals were injected intraperitoneally (i.p.) with TPA or 95% saline. After 20 hours, mice were injected i.p. with 60 μCi of [^3H] thymidine (2 Ci/mmol) 20 minutes before sacrifice. Epidermal scrapings were prepared. Epidermis cancer cells were cultured in condition of example 1.
Background: Dividing cells build labelled thymidine or BrdU into new DNA.

The test system of data set [2] is Human leukemia cells (HL-60). In words: Apoptosis of cancer cells. The class given is cell-based. The note with it: drug concentration 20 μm. Here is the method:
Human leukemia cells (HL-60) were grown in RPMI Medium 1640 supplemented with 10% (v/v) heat-inactivated FBS (56° C. for 30 min) at 37° C. in a humidified 95% air/5% CO2 atmosphere. Cells were seeded at a level of 2×10^5 cells/ml. Cells were allowed to attain a maximum density of 1.2×10^6 cells/ml before being passed by dilution into fresh medium to a concentration of 2×10^5 cells/ml.
Apoptosis Determined by two Methods:
Method (1): Cell pellets containing 5×10^6 cells were fixed with 2.5% glutaraldehyde in cacodylate buffer (pH 7.4), dehydrated through graded alcohol, and infiltrated with LX-112 epoxy resin. After overnight polymerization at 60°C. […]
DNA electrophoresis: Untreated and treated HL-60 cells collected by centrifugation, washed in phosphate buffered saline and re-suspended at a concentration of 5×10^6 cells and 0.1% RNase A. The mixture was incubated at 37° C. for 30 min and then incubated for an additional 30 min at 37° C. with 1 ml protease K. Buffer was added and 25 μl of the tube content transferred to the Horizontal 1.5% agarose gel electrophoresis was performed at 2 V/cm. […] DNA fragmentation assays: DNA cleavage was performed, quantitation of fractional solubilized DNA by diphenylamine assay and the percentage of cells harboring fragmented DNA determined by in labeling techniques. […] DNA was precipitated with 0.5 N perchloric acid and quantitated using diphenylamine reagent. […]

The next data set relates to c-myb RNA. Kind of data set: Oncogene expression by northern blot in ML-1 cells: c-myb. The class given is cell-based, Human. Here is the method: (§1) Human myeloblastic leukemic cells (ML-1) were maintained in suspension culture in RPMI 1640 medium supplemented with 7.5% heat-inactivated FBS. Cells growth and viability were assayed by hemocytometer using trypan-blue dye exclusion.
(§2) RNA was isolated by the CsCl gradient modification. RNA pellets were washed twice by reprecipitation in ethanol and quantitated by absorbency at […]. RNA analyzed by electrophoresis of 15 μg of RNA through 1.2% agarose formaldehyde gels followed by northern blot transfer to nitrocellulose.
(§3) Single-standard uniformly labeled DNA probes were prepared. Probe of c-myc was a 1.7 Kb cla-Eco RI restriction fragment containing the 3′exon region of human c-myc and probe of c-myb was 1.0 Kb myb-specific Bam HI fragment. Probes for n-ras contained DNA fragments using a modification of the PCR technique. Probes for myb, myc and n-ras were isolated. The isolated fragments were labeled to high specific activity with […] (3000 ci/mmol). Prehybridization of the filter was performed. The hybridization mixer contained 50,000 cpm of probe. The probes were hybridized at 58° C. in 15 mM NaCl, […] sodium citrate for 3 hours. After hybridization, they were exposed to XAR-5 film. Oncogene expression was quantitated by densitometer scanning of the autoradiography.

In the next data set the test system is c-myc RNA. In words: Oncogene expression by northern blot in ML-1 cells: c-myc. The class given is cell-based, Human. Here is the method: as §1, §2, §3
The next data set deals with tumor suppressor p^53. In words: p53 mutations by PCR-SSCP. Type of data set: cell-based. As for the experimental part:
The leukemic cancer cells and normal cells were cultured in RPMI 1640 medium supplement with 10% fetal bovine serum. All the exons of the p^53 were amplified by the polymease chain reaction (PCR) using specific oligonucleotide primers. The PCR products were subjected to single-strand conformation polymorphism (SSCP) analysis. […] Levels of DNA methylation were determined.

The test system of another data set is tumor suppressor p^17. Kind of data set: p17 allelic loss by PCR-SSCP. Type of data set: cell-based. As for the experimental part:
The p^17 is a tumor suppressor. The gastric cancer cells were used in this experiment. Gastric cancer cells and normal cells were cultured in RPMI 1640 medium supplement with 10% fetal bovine serum. All the exons of tumor suppressor p^17 were amplified by the polymease chain reaction (PCR) using specific oligonucleotide primers. The PCR products were subjected to single-strand conformation polymorphism (SSCP) analysis. A second PCR-SSCP analysis was performed. Levels of DNA methylation were determined.

Another data set deals with tumor suppressor p^16. In words: Methylation of tumor suppressor p16 (PCR-based) in bladder cell lines. The note with it: Cancer cells treated by HHT (no treatment: 81.5; normal: 15.8). The source says:
Bladder cell lines were used. Methods of RT-PCR were regular. PCR-based methylation determined by inability of some restriction enzymes to cut methylated sequences methods of determination was used to analyze the methylaton status of the p^16 and p^15 . PCR products were resolved on 2% agarose gels transferred to a nylon membrane and hydridized for the RT-PCR products. An undigested DNA control and MSPI-digested DNA control were examined.

The subject of another data set is HL-60. In words: Tumor cell proliferation inhibition, HL-60. Type of data set: cell-based, Human. The note with it: 1 μg/ml drug, 72 hours. As for the experimental part:
(§4) Human tumor cell lines: Hela leukemia HL-60, malignant melanocarcinoma B16, oral epidermoid carcinoma (KB), lung carcinoma (A549), breast carcinoma MCF-7, adenocarcinoma of stomach.
(§5) Animal tumor cell lines: Walker carcinoma, LLC-WRC-256, malignant melanoma (RMMI 1846), 3T3,and S-180 sarcoma (CCRF-180). All lines were routinely cultured in the RPMI1640 medium supplemented 20% fetal calf serum. The experiment was carried out in 96 microplate, each well had […] and given desired concentration of 1 μg/ml (1 x 10^−6 g/ml) drug. Then the plate was incubated at 37° C. in an atmosphere of humidified air enriched with 5 percent carbon dioxide for 72 hours.
(§6) Inhibition percent rate of tumor cell proliferation was obtained according to the bellow formula. [formula]

The test system of another data set is Hela. Kind of data set: Tumor cell proliferation inhibition, Hela. The class given is cell-based, Human. The note with it: 1 μg/ml drug, 72 hours. Here is the method:
as §4, §5, §6

For data set [3], the system named is malignant melanocarcinoma B16. Kind of data set: Tumor cell proliferation inhibition, B16. The note with it: 1 μg/ml drug, 72 hours. Type of data set: cell-based, Mouse. Here is the method: as §4, §5, §6
The test system of data set [4] is oral epidermoid carcinoma (KB). Kind of data set: Tumor cell proliferation inhibition, KB. To be noted: 1 μg/ml drug, 72 hours. Type of data set: cell-based, Human. Here is the method:
as §4, §5, §6

The test system of the next data set is breast carcinoma MCF-7. In words: Tumor cell proliferation inhibition, MCF-7. Type of data set: cell-based, Human. To be noted: 1 μg/ml drug, 72 hours. Here is the method: as §4, §5, §6
Data set [5] concerns Neuroblastoma tumor cells, melanocytic and epithelial cells. Kind of data set: Apoptosis with HHT and APO-2L (filter binding assay). The class given is cell-based. As for the experimental part: (§7) Neuroblastoma tumor cells, melanocytic and epithelial cells used in this experiment. Cells were grown routinely as monolayers in a 1:1 mixture of Eagle's minimum essential medium and Ham's nutrient mixture F-12 supplemented with 15% heat-inactivated fetal calf serum. Cells were used over a maximum of 15 passages to minimize intersubline differentiation.
Cytotoxicity Assays. Etoposide sensitivity was measured by clonogenic assay. Five hundred cells were plated per 2-cm^2 dish. Cells were treated for 1 hour with HHT or medium. Results are the mean ±S.E. of three independent experiments and duplicate plates were used in each individual experiment. Apoptosis was quantified by the filter binding assay.

The test system of a further data set is caspase-3. In words: Determination of caspase activation (Ac-DEVD-AMC substrate, cell lysate). The note with it: control 25.4 ± 3.0. The class given is cell-based. As for the experimental part: as §7
Determination of Caspase Activation. The substrate used was Ac-DEVD-AMC, which was made to 5 mM stock in dimethylformamide. On the day of the assay, substrate stock was diluted in water to 500 μM and kept on ice. Cell lysate (20 μg) was diluted to equal volumes (20 μl) in Nonidet-P40 lysis buffer and 1/10th of the volume of substrate was added. Exactly 10 min later, the reaction was stopped by adding the mix into 2 ml of water. Fluorescence was read on a fluorometer at an excitation wavelength of 380 nm and emission wavelength of 460 nm.

The test system of a further data set is mice. Kind of data set: LD50 in mice. The note with it: I.P. Type of data set: in vivo. Here is the method: (§8) Toxic doses for dogs: 0.16 mg/kg/day×7 of HHT was established as the toxic doses. Toxic doses for mice: In 38 normal mice after injection of HHT of 2 mg/kg/day×5 with the observation period of 5 days about 50% of the mice died.
The test system of the next data set is dogs. Kind of data set: Toxic doses for dogs. The class given is in vivo. To be noted: ×7. As for the experimental part:
as §8

For the next data set, the system named is normal mice. In words: Toxic doses for mice (repeated injection). Type of data set: in vivo. To be noted: 38 normal mice, injection of 2 mg/kg/day×5, observation period of 5 days. As for the experimental part:
as §8

Marks after values point to notes of the source that are not given here.

Turning to `COC(=O)C[C@](O)(CCCC(C)(C)O)C(=O)O[C@@H]1C(OC)=C[C@]23CCCN2CCc2cc4c(cc2[C@H]13)OCO4` [HHT, homoharringtonine], the “NBT (%)” value with HL-60 cells is 65* %; with gastric cancer cells it was 58* %; in the data set with Epidermis cancer cells, 80* %. Moreover, the “NSE (%)” value in the data set with HL-60 cells was 62* %; in the data set with gastric cancer cells, 60* %; with Epidermis cancer cells, 78* %. In addition, in [1], the “DNA synthesis of TPA-stimulated mouse epidermis” value is “remarkable inhibit”. Also, the entries for the “Apoptosis (%)” value in [2] and in data set [5] (HHT 500 nM (control 5.0 ± 0.49)) were 68.3 ± 7.6% and 39.5 ± 4.1%, respectively. The “Inhibition (%) c-myb RNA” value in the data set on c-myb RNA (HHT concentration 10 ng/ml) is reported as 65.0 ± 5.7%; in the data set on c-myb RNA (HHT concentration 50 ng/ml), 67.7 ± 6.8%. Also, the “Inhibition (%) c-myc RNA” value with c-myc RNA (HHT concentration 10 ng/ml) amounted to 70.5 ± 8.5%; in the data set with c-myc RNA (HHT concentration 50 ng/ml), 70.8 ± 8.9%. For the same molecule, in the data set with tumor suppressor p^53 (Gastric cancer cells treated by HHT (no drug: 35)), the “Frequency of p^53 mutations (%)” value is on record as 5%. Further, the “Inhibition T/C (%)” value with tumor suppressor p^53 (p^53 mutations, Gastric cancer cells treated by HHT) stood at 14.3 ± 1.5%; with tumor suppressor p^17 (p^17 allelic loss, Leukemic cancer cells treated by HHT), 12.5 ± 1.2%. For the same molecule, the “Frequency of p^17 allelic loss (%)” value in the data set on tumor suppressor p^17 (Leukemic cancer cells treated by HHT (untreated: 40)) is 5%. Moreover, the “Methylation (%)” value with tumor suppressor p^16 was 23.8^b %. Besides, the “Inhibition (%)” value came out at 80.8 ± 9.0% in the data set on HL-60; 75.6 ± 8.0% with Hela; 73.8 ± 8.1% in data set [3]; 80.0 ± 8.5% in data set [4]; 78.5 ± 7.9% with breast carcinoma MCF-7. This molecule showed a Caspase-3 activity with caspase-3 of 150.5 ± 16. Also, the LD50 in the data set with mice was found to be 3.17 ± 0.19 mg/kg. This molecule came in with a Toxic dose in the data set with dogs of 0.16 mg/kg/day. For the same molecule, the mice died result with normal mice is recorded as “about 50%”.

B1: APO-2L: also called TRAIL, has been shown to induce apoptosis of variety of cancer cell types (protein, UniProt P50591 1-281, looked up)
Tumor necrosis factor ligand …: MAMMEVQGGPSLGQTCVLIVIFTVLLQSLCVAVTYVYFTNELKQMQDKYSKSGIACFLKEDDSYWDPNDEESMNSPCWQVKWQLRQLVRKMILRTSEETISTVQEKQQNISPLVRERGPQRVAAHITGTRGRSNTLSSPNSKNEKALGRKINSWESSRSGHSFLSNLHLRNGELVIHEKGFYYIYSQTYFRFQEEIKENTKNDKQMVQYIYKYTSYPDPILLMKSARNSCWSKDAEYGLYSIYQGGIFELKENDRIFVSVTNEHLIDMDHEASFFGAFLVG
For B1, in data set [5] (APO-2L (control 5.0 ± 0.49)), the “Apoptosis (%)” value was 20.8 ± 2.0%.
